Data on eight molecules can be found in patent US20240158446A1, “CYCLIC COMPOUND HAVING SELECTIVE INHIBITORY ACTION ON KRAS OVER HRAS AND NRAS” (CHUGAI SEIYAKU KABUSHIKI KAISHA, priority 2021, published 2024).

As a reminder, the Kd is the equilibrium constant for the complex coming apart.

The target in experiment [1] is GDP-bound KRAS wild-type protein (Homo sapiens, UniProt P01116). Briefly: Binding to KRAS by surface plasmon resonance (SPR), Single Cycle Kinetics. To be noted: SPR Single Cycle Kinetics, GDP-bound KRAS wild-type protein, 1:1 binding model; read-out: KRAS KD. Background: Surface plasmon resonance follows binding to a sensor surface in real time, without labels.
Chain of GDP-bound KRAS wild-type protein (P01116 whole entry): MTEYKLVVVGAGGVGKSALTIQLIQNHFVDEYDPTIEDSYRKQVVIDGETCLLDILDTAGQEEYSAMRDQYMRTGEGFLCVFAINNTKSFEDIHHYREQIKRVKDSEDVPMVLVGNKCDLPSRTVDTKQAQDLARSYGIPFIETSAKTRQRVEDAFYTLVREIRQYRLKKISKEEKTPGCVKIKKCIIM
Experiment [2] deals with GDP-bound NRAS wild-type protein (Homo sapiens, UniProt P01111). Description: Binding to NRAS by surface plasmon resonance (SPR), Single Cycle Kinetics. To be noted: SPR, GDP-bound NRAS wild-type protein vs GDP-bound KRAS wild-type protein.
Chain of GDP-bound NRAS wild-type protein (P01111 whole entry): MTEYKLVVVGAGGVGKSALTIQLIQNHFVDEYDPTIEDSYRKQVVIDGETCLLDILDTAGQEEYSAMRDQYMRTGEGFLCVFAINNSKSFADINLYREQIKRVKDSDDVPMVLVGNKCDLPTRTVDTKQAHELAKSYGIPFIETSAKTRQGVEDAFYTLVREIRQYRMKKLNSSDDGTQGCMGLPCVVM
For experiment [3], the target named is GDP-bound HRAS wild-type protein (Homo sapiens, UniProt P01112). Description: Binding to HRAS by surface plasmon resonance (SPR), Single Cycle Kinetics. To be noted: SPR, GDP-bound HRAS wild-type protein vs GDP-bound KRAS wild-type protein.
Chain of GDP-bound HRAS wild-type protein (P01112 whole entry): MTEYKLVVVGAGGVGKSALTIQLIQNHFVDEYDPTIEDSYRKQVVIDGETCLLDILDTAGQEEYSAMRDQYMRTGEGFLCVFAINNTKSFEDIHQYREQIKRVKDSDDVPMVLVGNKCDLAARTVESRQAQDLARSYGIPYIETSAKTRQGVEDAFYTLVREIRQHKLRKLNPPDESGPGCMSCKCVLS

Structures are written as SMILES. *1 amine or outer side, *2 acyl side, *3 side chain or, on linkers, in order; H or OH if unused. Where a SMILES comes first, the peptide text is derived from it. Bridges are numbered along the chain shown (N, C = ends). [ ]: non-standard residue; d: D form. The star is where a group is joined. hPhe(3,5-F2-4-CF3) = N[C@@H](CCc1cc(F)c(C(F)(F)F)c(F)c1)C(=O)O; NPrPhe(4-CF3) = CCCN[C@@H](Cc1ccc(C(F)(F)F)cc1)C(=O)O; NMeAbu(4,4,4-F3) = CN[C@@H](CC(F)(F)F)C(=O)O; X13 = O=C([C@@H](N[*:1])C1CC(F)(F)C1)[*:2]; NMeGly(cPent) = CN[C@H](C(=O)O)C1CCCC1; Ac4c(3,3-F2) = NC1(C(=O)O)CC(F)(F)C1; Nva(3-Et) = CCC(CC)[C@H](N)C(=O)O; NMeD = CN[C@@H](CC(=O)O)C(=O)O; Ac4c(3-oxa) = NC1(C(=O)O)COC1; NMeL = CN[C@@H](CC(C)C)C(=O)O; αMeS = C[C@](N)(CO)C(=O)O; Ac5c = NC1(C(=O)O)CCCC1; Sar = CNCC(=O)O; tBu = CC(C)(C)*; Allyl = C=CC*

`CCCN1C(=O)CN(C)C(=O)CN(C)C(=O)[C@H]([C@@H](C)CC)NC(=O)[C@H](CC(C)C)N(C)C(=O)C[C@@H](C(=O)N(C)C)N(C)C(=O)[C@H](C2CCCC2)N(C)C(=O)[C@](C)(COC)NC(=O)[C@@H]2CCCN2C(=O)[C@H](CCc2cc(F)c(C(F)(F)F)c(F)c2)NC(=O)CN(C)C(=O)[C@@H]1Cc1ccc(C(F)(F)F)cc1` [PP0741] ([NMeL]I[Sar][Sar][NPrPhe(4-CF3)][Sar][hPhe(3,5-F2-4-CF3)]P[αMeS](Me)[NMeGly(cPent)][NMeD]-NMe2; lactam N-11): in experiment [1], the Kd turned out to be 0.28 nM. The “NRAS/KRAS (ratio of KD value with respect to NRAS to KD value with respect to KRAS)” value in experiment [2] was “B (a compound having 3 or more and less than 10 is denoted as B)”. The “HRAS/KRAS (ratio of KD value with respect to HRAS to KD value with respect to KRAS)” value in experiment [3] is “B (a compound having 3 or more and less than 10 is denoted as B)”.

With `C=CCOC[C@]1(C)NC(=O)[C@@H]2CCCN2C(=O)[C@H](CCc2cc(F)c(C(F)(F)F)c(F)c2)NC(=O)CN(C)C(=O)[C@H](Cc2ccc(C(F)(F)F)cc2)N(CCC)C(=O)CN(C)C(=O)CN(C)C(=O)[C@H]([C@@H](C)CC)NC(=O)[C@H](CC(C)C)N(C)C(=O)C[C@@H](C(=O)N(C)C)N(C)C(=O)[C@H](C2CCCC2)N(C)C1=O` [PP0742] ([NMeL]I[Sar][Sar][NPrPhe(4-CF3)][Sar][hPhe(3,5-F2-4-CF3)]P[αMeS](Allyl)[NMeGly(cPent)][NMeD]-NMe2; lactam N-11), the equilibrium dissociation constant (Kd) in experiment [1] turned out to be 0.51 nM. Moreover, the “NRAS/KRAS (ratio of KD value with respect to NRAS to KD value with respect to KRAS)” value in experiment [2] is “B (a compound having 3 or more and less than 10 is denoted as B)”. Besides, the “HRAS/KRAS (ratio of KD value with respect to HRAS to KD value with respect to KRAS)” value in experiment [3] is “B (a compound having 3 or more and less than 10 is denoted as B)”.

In the case of `CCCN1C(=O)CN(C)C(=O)CN(C)C(=O)[C@H]([C@@H](C)CC)NC(=O)[C@H](CC(C)C)N(C)C(=O)C[C@@H](C(=O)N(C)C)N(C)C(=O)[C@H](C2CCCC2)N(C)C(=O)[C@](C)(COC(C)(C)C)NC(=O)[C@@H]2CCCN2C(=O)[C@H](CCc2cc(F)c(C(F)(F)F)c(F)c2)NC(=O)CN(C)C(=O)[C@@H]1Cc1ccc(C(F)(F)F)cc1` [PP0743] ([NMeL]I[Sar][Sar][NPrPhe(4-CF3)][Sar][hPhe(3,5-F2-4-CF3)]P[αMeS](tBu)[NMeGly(cPent)][NMeD]-NMe2; lactam N-11), in experiment [1], the Kd is 0.68 nM. Besides, in experiment [2], the “NRAS/KRAS (ratio of KD value with respect to NRAS to KD value with respect to KRAS)” value is “B (a compound having 3 or more and less than 10 is denoted as B)”. The “HRAS/KRAS (ratio of KD value with respect to HRAS to KD value with respect to KRAS)” value in experiment [3] is “C (A compound having a KD ratio of 0.1 or more and less than 3 is denoted as C)”.

Consider `CCCN1C(=O)CN(C)C(=O)CN(C)C(=O)[C@H]([C@@H](C)CC)NC(=O)[C@H](CC(C)C)N(C)C(=O)C[C@@H](C(=O)N(C)C)N(C)C(=O)[C@H](C2CCCC2)N(C)C(=O)C2(COC2)NC(=O)[C@@H]2CCCN2C(=O)[C@H](CCc2cc(F)c(C(F)(F)F)c(F)c2)NC(=O)CN(C)C(=O)[C@@H]1Cc1ccc(C(F)(F)F)cc1` [PP0744] ([NMeL]I[Sar][Sar][NPrPhe(4-CF3)][Sar][hPhe(3,5-F2-4-CF3)]P[Ac4c(3-oxa)][NMeGly(cPent)][NMeD]-NMe2; lactam N-11), for which the Kd in experiment [1] stood at 0.06 nM. Moreover, the “NRAS/KRAS (ratio of KD value with respect to NRAS to KD value with respect to KRAS)” value in experiment [2] is “B (a compound having 3 or more and less than 10 is denoted as B)”. Also, the “HRAS/KRAS (ratio of KD value with respect to HRAS to KD value with respect to KRAS)” value in experiment [3] was “B (a compound having 3 or more and less than 10 is denoted as B)”.

Regarding `CCCN1C(=O)CN(C)C(=O)CN(C)C(=O)[C@H]([C@@H](C)CC)NC(=O)[C@H](CC(C)C)N(C)C(=O)C[C@@H](C(=O)N(C)C)N(C)C(=O)[C@H](C2CCCC2)N(C)C(=O)C2(CC(F)(F)C2)NC(=O)[C@@H]2CCCN2C(=O)[C@H](CCc2cc(F)c(C(F)(F)F)c(F)c2)NC(=O)CN(C)C(=O)[C@@H]1Cc1ccc(C(F)(F)F)cc1` [PP0745] ([NMeL]I[Sar][Sar][NPrPhe(4-CF3)][Sar][hPhe(3,5-F2-4-CF3)]P[Ac4c(3,3-F2)][NMeGly(cPent)][NMeD]-NMe2; lactam N-11), the Kd in experiment [1] is 0.029 nM. For the same molecule, the “NRAS/KRAS (ratio of KD value with respect to NRAS to KD value with respect to KRAS)” value in experiment [2] is “B (a compound having 3 or more and less than 10 is denoted as B)”. Further, the “HRAS/KRAS (ratio of KD value with respect to HRAS to KD value with respect to KRAS)” value in experiment [3] is “C (A compound having a KD ratio of 0.1 or more and less than 3 is denoted as C)”.

As for `CCCN1C(=O)CN(C)C(=O)CN(C)C(=O)[C@H]([C@@H](C)CC)NC(=O)[C@H](CC(C)C)N(C)C(=O)C[C@@H](C(=O)N(C)C)N(C)C(=O)[C@H](CC(F)(F)F)N(C)C(=O)C2(CCCC2)NC(=O)[C@@H]2CCCN2C(=O)[C@H](CCc2cc(F)c(C(F)(F)F)c(F)c2)NC(=O)CN(C)C(=O)[C@@H]1Cc1ccc(C(F)(F)F)cc1` [PP0746] ([NMeL]I[Sar][Sar][NPrPhe(4-CF3)][Sar][hPhe(3,5-F2-4-CF3)]P[Ac5c][NMeAbu(4,4,4-F3)][NMeD]-NMe2; lactam N-11), the Kd in experiment [1] turned out to be 0.43 nM. In addition, the “NRAS/KRAS (ratio of KD value with respect to NRAS to KD value with respect to KRAS)” value in experiment [2] is “B (a compound having 3 or more and less than 10 is denoted as B)”. Moreover, the “HRAS/KRAS (ratio of KD value with respect to HRAS to KD value with respect to KRAS)” value in experiment [3] was “C (A compound having a KD ratio of 0.1 or more and less than 3 is denoted as C)”.

Turning to `CCCN1C(=O)CN(C)C(=O)CN(C)C(=O)[C@H](C(CC)CC)NC(=O)[C@H](CC(C)C)N(C)C(=O)C[C@@H](C(=O)N(C)C)N(C)C(=O)[C@H](C2CCCC2)N(C)C(=O)C2(CCCC2)NC(=O)[C@@H]2CCCN2C(=O)[C@H](CCc2cc(F)c(C(F)(F)F)c(F)c2)NC(=O)CN(C)C(=O)[C@@H]1Cc1ccc(C(F)(F)F)cc1` [PP0747] ([NMeL][Nva(3-Et)][Sar][Sar][NPrPhe(4-CF3)][Sar][hPhe(3,5-F2-4-CF3)]P[Ac5c][NMeGly(cPent)][NMeD]-NMe2; lactam N-11), in experiment [1], the Kd was determined as 0.36 nM. Further, the “NRAS/KRAS (ratio of KD value with respect to NRAS to KD value with respect to KRAS)” value in experiment [2] was “B (a compound having 3 or more and less than 10 is denoted as B)”. The “HRAS/KRAS (ratio of KD value with respect to HRAS to KD value with respect to KRAS)” value in experiment [3] is “C (A compound having a KD ratio of 0.1 or more and less than 3 is denoted as C)”.

`CCCN1C(=O)CN(C)C(=O)CN(C)C(=O)[C@H](C2CC(F)(F)C2)NC(=O)[C@H](CC(C)C)N(C)C(=O)C[C@@H](C(=O)N(C)C)N(C)C(=O)[C@H](C2CCCC2)N(C)C(=O)C2(CCCC2)NC(=O)[C@@H]2CCCN2C(=O)[C@H](CCc2cc(F)c(C(F)(F)F)c(F)c2)NC(=O)CN(C)C(=O)[C@@H]1Cc1ccc(C(F)(F)F)cc1` [PP0748] ([NMeL][X13][Sar][Sar][NPrPhe(4-CF3)][Sar][hPhe(3,5-F2-4-CF3)]P[Ac5c][NMeGly(cPent)][NMeD]-NMe2; lactam N-11): in experiment [1], the Kd turned out to be 0.08 nM. In addition, in experiment [2], the “NRAS/KRAS (ratio of KD value with respect to NRAS to KD value with respect to KRAS)” value was “B (a compound having 3 or more and less than 10 is denoted as B)”. Moreover, the “HRAS/KRAS (ratio of KD value with respect to HRAS to KD value with respect to KRAS)” value in experiment [3] is “B (a compound having 3 or more and less than 10 is denoted as B)”.
